# Earlier results as cited in PMC8687831, “α-Amylase Inhibitory Activity of Catunaregam spinosa (Thunb.) Tirveng.: In Vitro and In Silico Studies” (BioMed Research International, 2021).
# Tested on: streptozotocin-induced diabetic rats
# Parameters: method as in PMID 21143769
smiles,measurement,value
"CC[C@H](CC[C@@H](C)[C@H]1CC[C@H]2[C@@H]3CC=C4C[C@@H](O)CC[C@]4(C)[C@H]3CC[C@]12C)C(C)C [β-Sitosterol, β-sitosterol]",effective to lower the blood glucose level,78-100%
